{
  "source": "patent US20190358238A1",
  "about": "“ALLOSTERIC ANTAGONISTS OF GPRC6a AND THEIR USE IN MITIGATING PROTEINOPATHIES” (UNIVERSITY OF SOUTH FLORIDA, priority 2016, published 2019)",
  "key": {"C3H/htau cells": {"test_system": "C3H/htau cells", "experiment": "tau expression in C3H/htau cells treated 72 hours, samples run on a gel", "format": "cell-based", "details": "for monomeric and high molecular weight (HMW) tau multimers: 72 hours", "experimental": "(§1) FIG. 3A, FIG. 3B, FIG. 3C, FIG. 3D. C3H/htau cells treated with siRNA to GPRC6A show decreased tau expression compared to scrambled siRNA (FIG. 3A). GPRC6a allosteric antagonist Cpd#3 (Drug 47661) (0-250 tLM) decreases monomeric and high molecular weight (HMW) tau multimers (FIG. 3B) in C3H/htau cells. FIG. 3C-FIG. 3D show decreased tau in primary neurons after (Drug 47661) decreases tau at 10-100 nM. All treatments=72 hours (n=3 independent exp.).\nFIG. 6. C3H/htau cells treated with GPRC6A antagonist show decreased tau expression compared to vehicle (dotted line and first lane in each well). All GPRC6a allosteric antagonists Drug 47661 (red), PF020 (blue), PF037 (black) (0-100 μM) decreased monomeric and high molecular weight (HMW) tau multimers in C3H/htau cells at different concentrations. All treatments=72 hours (n=3 independent exp.).\nrTg4510 tau mice comprise of the tau P301L mutation which expresses in the forebrain and hippocampus (K. Santacruz, et al. Science 2005, 309, 476). […] Accumulation of ptau occurs largely between 3 and 9 mo of age. Additionally, high-molecular weight tau multimers/oligomers and nitrated tau also accumulate in rTg4510 tau transgenic mice compared to non-transgenic littermates (J. B. Hunt, Jr., et al. J. Neurosci. 2015, 35, 14842). […] In stably tau overexpressing HeLa cells (C3H/htau), siRNA to GPRC6a reduced receptor expression coupled with a reduction in tau […]. We will repress GPRC6a expression in the CNS with rAAV-shRNA-GPRC6a to reduce receptor signaling.\n(§2) Some of the compounds have 9-fold more selectivity for GPRC6a than our current compound in a FRET-based assay (H. Johansson, et al. J. Med. Chem. 2015, 58, 8938), and an excess of 50 derivatives to these current lead compounds will be analyzed. A tetracycline inducible “on” tau fusion-Dendra2 stable cell line will be used, which is a green-to-red irreversible photoswitchable fluorescent protein activated by UV-violet/blue light. We will induce tau expression with tetracycline (1 μg/mL) for 24 h, then photo convert tau dendra2-green with blue light (488 nm) for 10 minutes to tau-dendra2-red for monitoring kinetics of tau. […] We will treat cells with GPRC6a allosteric antagonists for 72 hours with continual red fluorescent output readings every 6 hours (553 nm ex and 573 nm em). This assay will measure tau degradation kinetics over time (time 0 point at which photo switch occurs from tau-green to tau-red) (FIG. 5). Agents that govern tau biology will alter the rate of tau degradation (tau-red). Newly synthesize tau (tau-green) will fluoresce green to be measure on a separated channel. We will also co-label cells with DAPI nuclear stain to account for cell loss and nuclear chromatin changes. We will use Biotek®@ Cytation™ 3 Cell Imaging Multi-Mode Reader located at Byrd Institute. We will use a 96 well semi-high throughput platform with GPRC6a antagonist concentrations ranging from (10 nM-100 μM). We will also perform cell toxicity assays (Cyto Tox-ONE LDH Membrane Integrity Assay, Promega). We will perform western blot analysis in C3H/htau cells from GPRC6a antagonists that reduce tau levels more than 30% at 3 μM or below and with no more than 5-10% toxicity. We will measure autophagy related makers to determine the mechanism for tau reduction.\nC3H/htau cells were treated for 72 hours with varying concentrations of GPRC6A antagonist Drug 47661, PF020, or PF037. Samples were run on a gel. […]"}, "BE(2) M17 cells": {"test_system": "BE(2) M17 cells", "experiment": "alpha synuclein expression in BE(2) M17 cells stably transfected with wild-type alpha synuclein", "format": "cell-based", "details": "72 hours, relative to GAPDH", "experimental": "FIG. 10. Shown are BE(2) M17 cells stably transfected with wild-type alpha synuclein (16 kDa) treated with GPRC6a antagonist drug 47661 for 72 hours. […] Statistical analysis was performed using One-way Anova with Fisher's LSD multiple comparison test as post hoc. (n=3 independent experiments).\nBE(2) M17 cells were stably transfected with wild-type alpha synuclein (16 kDa) and treated with GPRC6a antagonist drug 47661 for 72 hours. Samples were run on a gel. […] Statistical analysis was performed using One-way Anova with Fisher's LSD multiple comparison test as post hoc."}, "primary neurons": {"test_system": "primary neurons", "experiment": "tau in primary neurons after 72 hours treatment", "format": "cell-based", "details": "10-100 nM, endogenous tau, nanomolar efficacy", "experimental": "as §1\nSome of the compounds have 9-fold more selectivity for GPRC6a than our current compound in a FRET-based assay (H. Johansson, et al. J. Med. Chem. 2015, 58, 8938), and an excess of 50 derivatives to these current lead compounds will be analyzed. A tetracycline inducible “on” tau fusion-Dendra2 stable cell line will be used, which is a green-to-red irreversible photoswitchable fluorescent protein activated by UV-violet/blue light. We will induce tau expression with tetracycline (1 μg/mL) for 24 h, then photo convert tau dendra2-green with blue light (488 nm) for 10 minutes to tau-dendra2-red for monitoring kinetics of tau. […] We will treat cells with GPRC6a allosteric antagonists for 72 hours with continual red fluorescent output readings every 6 hours (553 nm ex and 573 nm em). […] We will use Biotek®@ Cytation™ 3 Cell Imaging Multi-Mode Reader located at Byrd Institute. […]"}, "[1]": {"test_system": "PS 19 tau (P301S) transgenic mice", "experiment": "acute bolus injection into PS19 tau (P301S) transgenic mice, western blot after 72 hours", "format": "in vivo, mouse", "experimental": "FIG. 4. GPRC6a allosteric antagonist impacts tau levels and modifies autophagy markers in PS 19 tau transgenic mice. PSI9 (P301S) mice (bottom left of panel) show tau AT8 accumulation received an acute bolus injection of vehicle on one hemisphere and the antagonist (Drug 47661, 78 ng) on the opposite hemisphere for 72 hours.\nas §2"}, "[2]": {"experiment": "half-life of Drug 47661 in naive mice after IV injection", "format": "in vivo, mouse", "experimental": "FIG. 9. Graphs show relative half-life of Drug 47661. Naïve mice were injected with 5 mg/kg of Drug 47661 IV. Serial submandibular bleeds were taken 15 min and 60 min post IV injection. […] (N=3).\nThe half-life of GPRC6A antagonist Drug 47661 was examined. Naïve mice were injected with 5 mg/kg of Drug 47661 by IV. Serial submandibular bleeds were taken 15 min and 60 min post IV injection. […] (N=3). Shown in FIG. 9 is a graph showing the relative half-life of Drug 47661."}, "[3]": {"details": "78 ng bolus injection, western blot"}},
  "note": "“Also recorded” adds a separate entry of the source.",
  "data": [
    {"compound": "O=C(CN1CCCC(C(=O)N2CCOCC2)C1)c1c(-c2ccccc2)[nH]c2ccccc12", "note": "(stereo not drawn) [PF020, 2-(3-(morpholine-4-carbonyl)piperidin-1-yl)-1-(2-phenyl-1H-indol-3-yl)ethan-1-one]", "values": [
      {"measurement": "monomeric and high molecular weight (HMW) tau multimers", "setting": "C3H/htau cells; 0-100 μM, vs vehicle, FIG. 6", "result": "decreased"}
    ]},
    {"compound": "CN(CC(=O)c1c(-c2ccccc2)[nH]c2ccccc12)CC(=O)N1CCOCC1", "note": "[Drug 47661, 2-(methyl(2-morpholino-2-oxoethyl)amino)-1-(2-phenyl-1H-indol-3-yl)ethan-1-one]", "values": [
      {"measurement": "monomeric (16 kDa) and oligomeric (>75 kDa) alpha synuclein expression", "setting": "BE(2) M17 cells", "result": "decreased"},
      {"measurement": "tau in primary neurons", "setting": "primary neurons", "result": "reduced; also recorded: decreased tau"},
      {"measurement": "monomeric and high molecular weight (HMW) tau multimers", "setting": "C3H/htau cells; 0-100 μM, vs vehicle, FIG. 6", "result": "decreased"},
      {"measurement": "monomeric and high molecular weight (HMW) tau multimers", "setting": "C3H/htau cells; 0-250 tLM, FIG. 3B", "result": "decreases"},
      {"measurement": "clearance among monomeric, insoluble, and oligomeric tau", "setting": "C3H/htau cells; micromolar efficacy", "result": "significant clearance"},
      {"measurement": "beclin 1", "setting": "[1]; [3]", "result": "increased"},
      {"measurement": "mTOR", "setting": "[1]; [3]", "result": "decreased"},
      {"measurement": "p62", "setting": "[1]; [3]", "result": "decreased"},
      {"measurement": "tau expression (total tau)", "setting": "[1]; 78 ng one-time bolus injection, entorhinal cortex, vs vehicle hemisphere", "result": "modestly reduced"},
      {"measurement": "clearance rate", "setting": "[2]; 5 mg/kg IV (FIG. 9 legend)", "result": 4.5, "unit": "Lh/kg"},
      {"measurement": "half-life", "setting": "[2]; mouse, blood, 5 mg/kg IV", "result": 9.6, "unit": "min"},
      {"measurement": "clearance", "setting": "[2]; mouse, blood, 5 mg/kg IV, read-out: clearance rate (converted)", "result": 75, "unit": "mL/min/kg"},
      {"measurement": "Vd", "setting": "[2]; mouse, blood, 5 mg/kg IV, read-out: volume of distribution", "result": 1.07, "unit": "L/kg"}
    ]},
    {"compound": "CN(CCN1CCOCC1)CC(=O)c1c(-c2ccccc2)[nH]c2ccccc12", "note": "[PF037]", "values": [
      {"measurement": "monomeric and high molecular weight (HMW) tau multimers", "setting": "C3H/htau cells; 0-100 μM, vs vehicle, FIG. 6", "result": "decreased"}
    ]}
  ]
}
